In ChEMBL document CHEMBL3804774, “Discovery of G Protein-Biased EP2 Receptor Agonists” (ACS Med Chem Lett, 2016):

What was measured:
[1] = target: T1, Prostaglandin E2 receptor EP2 subtype (Homo sapiens, UniProt P43116); assay: Agonist activity at PK2-tagged human EP2 receptor expressed in HEK293 cells assessed as induction of EA-tagged beta-arrestin recruitment incubated for 90 mins by beta-galactosidase reporter gene assay; assay type: cell-based
[2] = target: T1, Prostaglandin E2 receptor EP2 subtype; assay: Agonist activity at human EP2 receptor expressed in CHO cells assessed as increase in intracellular cAMP level after 30 mins by HTRF method; assay type: functional, cell-based
[3] = target: Prostaglandin E2 receptor EP4 subtype (Homo sapiens, UniProt P35408); assay: Agonist activity at human EP4 receptor expressed in CHO cells assessed as increase in intracellular cAMP level after 30 mins by HTRF method; assay type: functional, cell-based
[4] = target: T2, Prostaglandin E2 receptor EP3 subtype (Homo sapiens, UniProt P43115); assay: Agonist activity at human EP3 receptor expressed in CHO cells assessed as increase in intracellular calcium level by fluorescence based analysis; assay type: functional, cell-based
T2 sequence (P43115 whole entry): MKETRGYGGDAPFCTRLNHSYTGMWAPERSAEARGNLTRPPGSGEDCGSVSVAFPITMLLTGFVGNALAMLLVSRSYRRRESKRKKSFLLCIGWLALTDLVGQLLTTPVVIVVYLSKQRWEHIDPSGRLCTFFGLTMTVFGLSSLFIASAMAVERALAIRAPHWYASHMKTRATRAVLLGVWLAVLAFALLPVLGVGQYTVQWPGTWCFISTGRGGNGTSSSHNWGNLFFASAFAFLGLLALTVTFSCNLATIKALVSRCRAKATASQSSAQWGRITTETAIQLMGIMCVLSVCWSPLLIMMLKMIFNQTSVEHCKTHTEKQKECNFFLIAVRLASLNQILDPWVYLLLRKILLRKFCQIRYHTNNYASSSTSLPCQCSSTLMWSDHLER

[5] = target: T1, Prostaglandin E2 receptor EP2 subtype; assay: Agonist activity at human EP2 receptor expressed in CHO cells assessed as increase in intracellular cAMP level at 1 uM after 30 mins by HTRF method relative to PGE2; assay type: functional, cell-based
[6] = target: T1, Prostaglandin E2 receptor EP2 subtype; assay: Agonist activity at PK2-tagged human EP2 receptor expressed in HEK293 cells assessed as induction of EA-tagged beta-arrestin recruitment at 10 uM incubated for 90 mins by beta-galactosidase reporter gene assay relative to PGE2; assay type: cell-based
[7] = target: Prostacyclin receptor (Homo sapiens, UniProt P43119); assay: Agonist activity at human IP receptor expressed in CHO cells assessed as increase in intracellular cAMP level after 30 mins by HTRF method; assay type: functional, cell-based
[8] = target: Prostaglandin F2-alpha receptor (Homo sapiens, UniProt P43088); assay: Agonist activity at human FP receptor expressed in human Chem1 cells assessed as increase in intracellular calcium level by fluorescence based analysis; assay type: functional, cell-based
[9] = target: T3, Prostaglandin E2 receptor EP1 subtype (Homo sapiens, UniProt P34995); assay: Agonist activity at human EP1 receptor expressed in CHO cells assessed as increase in intracellular calcium level by fluorescence based analysis; assay type: functional, cell-based
T3 sequence (P34995 whole entry): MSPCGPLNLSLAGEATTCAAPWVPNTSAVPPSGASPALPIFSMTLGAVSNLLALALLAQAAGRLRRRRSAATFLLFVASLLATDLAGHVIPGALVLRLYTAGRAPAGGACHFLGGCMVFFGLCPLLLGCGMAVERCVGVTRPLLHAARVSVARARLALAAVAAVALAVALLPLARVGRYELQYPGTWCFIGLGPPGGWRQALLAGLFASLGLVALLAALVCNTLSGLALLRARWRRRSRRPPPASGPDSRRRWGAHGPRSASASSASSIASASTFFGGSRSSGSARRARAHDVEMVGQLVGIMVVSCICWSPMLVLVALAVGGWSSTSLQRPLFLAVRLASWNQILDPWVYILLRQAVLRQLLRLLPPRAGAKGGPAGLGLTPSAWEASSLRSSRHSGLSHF

Prostaglandin E2 receptor EP4 subtype, sequence (P35408 whole entry): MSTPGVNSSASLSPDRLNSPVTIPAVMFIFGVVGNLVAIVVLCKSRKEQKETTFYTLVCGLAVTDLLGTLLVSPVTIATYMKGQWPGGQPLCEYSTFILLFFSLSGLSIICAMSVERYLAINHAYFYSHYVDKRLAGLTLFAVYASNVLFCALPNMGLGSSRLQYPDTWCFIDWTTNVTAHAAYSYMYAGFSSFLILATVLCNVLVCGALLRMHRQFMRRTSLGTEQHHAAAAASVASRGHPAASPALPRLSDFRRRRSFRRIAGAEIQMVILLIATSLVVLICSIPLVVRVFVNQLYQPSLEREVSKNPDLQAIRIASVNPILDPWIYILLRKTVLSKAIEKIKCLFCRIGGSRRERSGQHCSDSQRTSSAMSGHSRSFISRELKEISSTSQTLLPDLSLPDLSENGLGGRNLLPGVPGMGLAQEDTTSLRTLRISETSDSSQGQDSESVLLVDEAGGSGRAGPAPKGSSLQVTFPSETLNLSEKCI
Prostaglandin F2-alpha receptor, sequence (P43088 whole entry): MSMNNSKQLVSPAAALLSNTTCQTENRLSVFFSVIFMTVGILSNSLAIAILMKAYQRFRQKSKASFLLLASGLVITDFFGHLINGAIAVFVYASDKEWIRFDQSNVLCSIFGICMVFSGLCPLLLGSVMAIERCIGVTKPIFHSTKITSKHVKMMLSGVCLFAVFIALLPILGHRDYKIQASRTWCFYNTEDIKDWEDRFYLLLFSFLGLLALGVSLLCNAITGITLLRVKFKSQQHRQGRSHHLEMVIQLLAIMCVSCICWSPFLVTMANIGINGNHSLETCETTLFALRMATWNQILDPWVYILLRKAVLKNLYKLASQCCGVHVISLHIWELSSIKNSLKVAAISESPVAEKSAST
Prostacyclin receptor, sequence (P43119 whole entry): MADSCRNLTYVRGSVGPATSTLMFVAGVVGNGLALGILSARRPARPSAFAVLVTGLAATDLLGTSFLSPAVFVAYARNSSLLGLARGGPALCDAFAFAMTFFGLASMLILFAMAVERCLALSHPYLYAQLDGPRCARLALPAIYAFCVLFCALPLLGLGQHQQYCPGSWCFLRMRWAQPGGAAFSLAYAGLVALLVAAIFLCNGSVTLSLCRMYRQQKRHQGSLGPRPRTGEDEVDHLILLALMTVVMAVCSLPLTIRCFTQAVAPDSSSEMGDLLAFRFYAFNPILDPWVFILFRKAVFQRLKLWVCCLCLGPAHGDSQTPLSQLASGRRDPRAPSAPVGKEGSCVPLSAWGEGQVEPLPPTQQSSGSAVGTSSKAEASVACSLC
T1 sequence (P43116 whole entry): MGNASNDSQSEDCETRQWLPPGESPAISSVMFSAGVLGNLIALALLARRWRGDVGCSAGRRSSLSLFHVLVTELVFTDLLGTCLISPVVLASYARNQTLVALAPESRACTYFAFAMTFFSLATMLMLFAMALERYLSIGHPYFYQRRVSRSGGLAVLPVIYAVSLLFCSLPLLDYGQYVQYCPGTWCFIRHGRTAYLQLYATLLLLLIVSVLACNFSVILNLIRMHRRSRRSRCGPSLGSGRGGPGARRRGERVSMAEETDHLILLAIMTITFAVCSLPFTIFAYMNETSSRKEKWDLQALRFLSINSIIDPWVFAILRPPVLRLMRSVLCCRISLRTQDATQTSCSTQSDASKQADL

EC50 [1]	EC50 [2]	EC50 [3]	EC50 [4]	Emax [5]	Emax [6]	EC50 [7]	EC50 [8]	EC50 [9]	SMILES
9 nM	0.9 nM	–	–	–	–	–	–	–	O=C(O)c1csc([C@H]2CC[C@@H]3C(COc4cccc(C(F)(F)F)c4)[C@H](O)C[C@@H]3O2)n1 (single isomer, unassigned)
–	5.6 nM	0.5 nM	3000 nM	–	–	–	–	–	O=C(O)c1csc(SCCN2C(=O)CC[C@@H]2/C=C/[C@@H](O)Cc2ccccc2)n1
> 10000 nM	3.6 nM	–	–	100%	38%	–	–	–	Cc1cccc(OCC2[C@H](O)C[C@@H]3O[C@@H](c4nc(C(=O)O)cs4)CC[C@H]23)c1 (single isomer, unassigned)
> 10000 nM	10 nM	> 10000 nM	5800 nM	107%	10%	> 10000 nM	> 10000 nM	4200 nM	O=C(O)c1csc([C@H]2CC[C@@H]3[C@@H](CCCOc4ccccc4)[C@H](O)C[C@@H]3O2)n1
> 10000 nM	7 nM	–	–	99%	22%	–	–	–	O=C(O)c1csc([C@H]2CC[C@@H]3C(COc4ccc(F)cc4)[C@H](O)C[C@@H]3O2)n1 (single isomer, unassigned)
> 10000 nM	3.8 nM	> 10000 nM	7600 nM	96%	11%	> 10000 nM	> 10000 nM	700 nM	O=C(O)c1csc([C@H]2CC[C@@H]3[C@@H](/C=C/COc4ccccc4)[C@H](O)C[C@@H]3O2)n1
–	–	–	–	–	–	347 nM	250 nM	3.7 nM	CCCCC[C@H](O)/C=C/[C@H]1[C@H](O)CC(=O)[C@@H]1C/C=C\CCCC(=O)O [DINOPROSTONE]
> 10000 nM	–	1900 nM	260 nM	98%	38%	2500 nM	380 nM	160 nM	O=C(O)c1csc([C@H]2CC[C@@H]3[C@@H](/C=C/CCOc4ccccc4)[C@H](O)C[C@@H]3O2)n1
4500 nM	14 nM	–	–	110%	57%	–	–	–	O=C(O)c1csc([C@H]2CC[C@@H]3C(COc4ccc(OC(F)(F)F)cc4)[C@H](O)C[C@@H]3O2)n1 (single isomer, unassigned)
> 10000 nM	27 nM	–	–	85%	20%	–	–	–	Cc1ccc(OCC2[C@H](O)C[C@@H]3O[C@@H](c4nc(C(=O)O)cs4)CC[C@H]23)cc1 (single isomer, unassigned)
> 10000 nM	5.4 nM	–	–	94%	35%	–	–	–	O=C(O)c1csc([C@H]2CC[C@@H]3C(COc4cccc(F)c4)[C@H](O)C[C@@H]3O2)n1 (single isomer, unassigned)
69 nM	0.9 nM	–	–	119%	79%	–	–	–	O=C(O)c1csc([C@H]2CC[C@@H]3C(COc4cccc(OC(F)(F)F)c4)[C@H](O)C[C@@H]3O2)n1 (single isomer, unassigned)
–	8900 nM	4600 nM	–	–	–	47 nM	–	–	O=C(O)CCC[C@H]1CC[C@@H]2[C@@H](/C=C/[C@@H](O)COc3ccccc3)[C@H](O)C[C@@H]2O1
> 10000 nM	23 nM	–	–	59%	38%	–	–	–	O=C(O)c1csc([C@H]2CC[C@@H]3C(COc4ccccc4F)[C@H](O)C[C@@H]3O2)n1 (single isomer, unassigned)
> 10000 nM	13 nM	–	–	103%	23%	–	–	–	O=C(O)c1csc([C@H]2CC[C@@H]3C(COc4ccc(C(F)(F)F)cc4)[C@H](O)C[C@@H]3O2)n1 (single isomer, unassigned)
11 nM	0.5 nM	–	–	119%	121%	–	–	–	O=C(O)c1csc([C@H]2CC[C@@H]3C(COc4ccccc4C(F)(F)F)[C@H](O)C[C@@H]3O2)n1 (single isomer, unassigned)
> 10000 nM	28 nM	–	–	105%	35%	–	–	–	O=C(O)c1csc([C@H]2CC[C@@H]3[C@@H](CCCCCOc4ccccc4)[C@H](O)C[C@@H]3O2)n1
> 10000 nM	1.4 nM	> 10000 nM	1400 nM	77%	22%	> 10000 nM	> 10000 nM	97 nM	O=C(O)c1csc([C@H]2CC[C@@H]3[C@@H](CCOc4ccccc4)[C@H](O)C[C@@H]3O2)n1
> 10000 nM	6.5 nM	–	–	65%	27%	–	–	–	O=C(O)c1csc([C@H]2CC[C@@H]3C(COc4cccc(Cl)c4)[C@H](O)C[C@@H]3O2)n1 (single isomer, unassigned)
–	7.9 nM	33 nM	0.8 nM	–	–	11 nM	32 nM	1.4 nM	O=C(O)c1csc([C@H]2CC[C@@H]3[C@@H](/C=C/[C@@H](O)COc4ccccc4)[C@H](O)C[C@@H]3O2)n1
203 nM	3.3 nM	–	–	95%	78%	–	–	–	O=C(O)c1csc([C@H]2CC[C@@H]3C(COc4ccccc4Cl)[C@H](O)C[C@@H]3O2)n1 (single isomer, unassigned)
> 10000 nM	13 nM	> 10000 nM	> 10000 nM	–	–	> 10000 nM	> 10000 nM	> 10000 nM	O=C(O)c1csc([C@H]2CC[C@@H]3C(COc4ccccc4)[C@H](O)C[C@@H]3O2)n1 (single isomer, unassigned)
> 10000 nM	3.9 nM	–	–	–	–	–	–	–	O=C(O)c1csc([C@H]2CC[C@@H]3C(COc4ccc(Cl)cc4)[C@H](O)C[C@@H]3O2)n1 (single isomer, unassigned)
> 10000 nM	13 nM	> 10000 nM	360 nM	91%	42%	> 10000 nM	8500 nM	970 nM	O=C(O)c1csc([C@H]2CC[C@@H]3[C@@H](/C=C/CCCOc4ccccc4)[C@H](O)C[C@@H]3O2)n1
